Test results published in ChEMBL document CHEMBL1201862, “PubChem BioAssay data set” (2004).
Activity calls are given as the source filed them.

Assays:
[1] = molecular target: Cytochrome P450 2C19 (Homo sapiens, UniProt P33261); assay: Cytochrome panel assay with activity outcomes. Panel member name: p450-cyp2c19 Compounds with AC50 equal or less than 10 uM are considered active; type: functional; conditions: read-out: AC50
[2] = molecular target: Cytochrome P450 2D6 (Homo sapiens, UniProt P10635);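 further: CYP2D6 member of a cytochrome P450 panel assay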
Sequence of Cytochrome P450 2D6 (P10635 whole entry): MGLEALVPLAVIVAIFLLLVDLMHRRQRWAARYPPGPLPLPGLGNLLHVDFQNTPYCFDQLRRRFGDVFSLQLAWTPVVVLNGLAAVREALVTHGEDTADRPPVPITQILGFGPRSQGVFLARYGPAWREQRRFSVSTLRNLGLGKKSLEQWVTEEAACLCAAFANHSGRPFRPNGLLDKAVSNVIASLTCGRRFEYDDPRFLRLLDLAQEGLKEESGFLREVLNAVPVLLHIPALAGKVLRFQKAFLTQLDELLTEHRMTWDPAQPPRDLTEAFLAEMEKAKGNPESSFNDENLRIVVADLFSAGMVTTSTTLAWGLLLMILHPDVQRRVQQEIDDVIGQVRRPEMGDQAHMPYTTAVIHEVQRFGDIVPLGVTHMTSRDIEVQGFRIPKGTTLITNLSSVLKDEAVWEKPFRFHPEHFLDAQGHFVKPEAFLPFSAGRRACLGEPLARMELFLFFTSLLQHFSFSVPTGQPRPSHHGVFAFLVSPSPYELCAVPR

[3] = molecular target: Cytochrome P450 2C9 (Homo sapiens, UniProt P11712)
Sequence of Cytochrome P450 2C9 (P11712 whole entry): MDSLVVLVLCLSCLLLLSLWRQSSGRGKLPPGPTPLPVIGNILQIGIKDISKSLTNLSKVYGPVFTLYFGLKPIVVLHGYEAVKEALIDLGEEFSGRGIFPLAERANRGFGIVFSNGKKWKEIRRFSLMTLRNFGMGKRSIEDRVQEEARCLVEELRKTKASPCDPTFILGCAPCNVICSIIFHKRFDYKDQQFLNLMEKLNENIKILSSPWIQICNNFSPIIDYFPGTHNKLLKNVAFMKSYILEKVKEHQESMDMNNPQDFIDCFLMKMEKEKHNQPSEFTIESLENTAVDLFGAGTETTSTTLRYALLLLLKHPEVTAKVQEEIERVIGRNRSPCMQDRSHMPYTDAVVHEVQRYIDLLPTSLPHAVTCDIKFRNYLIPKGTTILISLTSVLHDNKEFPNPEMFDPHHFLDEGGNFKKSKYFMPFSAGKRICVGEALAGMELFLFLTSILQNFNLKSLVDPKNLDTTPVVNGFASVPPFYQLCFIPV

[4] = molecular target: T1, Interleukin-8 (Homo sapiens, UniProt P10145); assay: Dose Response confirmation of uHTS small molecule hits for cystic fibrosis induced NFkb Inhibitors in a PAF-induced IL8 counterscreen.; type: functional; conditions: read-out: IC50_Mean
T1 sequence (P10145 whole entry): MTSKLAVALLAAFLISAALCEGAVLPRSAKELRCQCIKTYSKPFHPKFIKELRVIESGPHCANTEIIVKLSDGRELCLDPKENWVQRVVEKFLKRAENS

[5] = tested on: Vero; assay: cells; type: functional; conditions: Chlorocebus sabaeus
[6] = tested on: Vero; assay: cells; type: functional, cell-based; conditions: Chlorocebus sabaeus
[7] = molecular target: Cytochrome P450 3A4 (Homo sapiens, UniProt P08684);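 further: CYP3A4 tested as one member of a cytochrome P450 panel screen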
Sequence of Cytochrome P450 3A4 (P08684 whole entry): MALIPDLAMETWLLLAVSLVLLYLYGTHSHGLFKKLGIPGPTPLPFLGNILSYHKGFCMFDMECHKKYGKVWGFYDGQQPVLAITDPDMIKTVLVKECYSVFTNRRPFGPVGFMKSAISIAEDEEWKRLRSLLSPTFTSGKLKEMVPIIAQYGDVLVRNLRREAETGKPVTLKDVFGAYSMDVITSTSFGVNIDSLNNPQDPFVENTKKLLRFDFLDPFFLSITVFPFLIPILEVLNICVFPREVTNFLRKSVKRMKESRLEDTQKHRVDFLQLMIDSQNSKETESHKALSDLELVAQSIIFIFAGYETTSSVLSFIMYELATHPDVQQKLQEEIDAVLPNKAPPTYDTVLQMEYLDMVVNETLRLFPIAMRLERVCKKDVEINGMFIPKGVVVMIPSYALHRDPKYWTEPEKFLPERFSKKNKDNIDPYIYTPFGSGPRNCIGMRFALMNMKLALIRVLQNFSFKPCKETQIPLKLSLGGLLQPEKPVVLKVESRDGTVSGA

[8] = control 3'UTR Renilla luciferase suppression, dose response, counter-screen for Shn3 inhibitor project, cell-based, Clone20-Shn3RL, cherry-picked (AID 624133); type: functional
[9] = Shn3 3'UTR reporter inhibitors, dose response, cell-based, Clone20 osteoblasts, firefly luciferase, cherry-picked (AID 624132); type: functional;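 further: firefly luciferase luminescence from reporter carrying the Shn3 3'UTR in osteoblasts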
[10] = A549 cell cytotoxicity, dose response, cytotoxicity control, plate reader, cherry-pick, antagonist series (AID 743412); type: functional, cell-based
[11] = HEK293 cell cytotoxicity, dose response, cytotoxicity control, plate reader, cherry-picked samples (AID 743446); type: functional, cell-based
[12] = molecular target: Paired box protein Pax-8 (Homo sapiens, UniProt Q06710); assay: inhibitors of PAX8-driven TPO luciferase reporter, dose response, RMG-I cells, cherry-pick (AID 687027); type: functional, cell-based;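 further: luciferase reporter driven by Pax8 target thyroperoxidase promoter measured by SteadyGlo luminescence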
Sequence of Paired box protein Pax-8 (Q06710 whole entry): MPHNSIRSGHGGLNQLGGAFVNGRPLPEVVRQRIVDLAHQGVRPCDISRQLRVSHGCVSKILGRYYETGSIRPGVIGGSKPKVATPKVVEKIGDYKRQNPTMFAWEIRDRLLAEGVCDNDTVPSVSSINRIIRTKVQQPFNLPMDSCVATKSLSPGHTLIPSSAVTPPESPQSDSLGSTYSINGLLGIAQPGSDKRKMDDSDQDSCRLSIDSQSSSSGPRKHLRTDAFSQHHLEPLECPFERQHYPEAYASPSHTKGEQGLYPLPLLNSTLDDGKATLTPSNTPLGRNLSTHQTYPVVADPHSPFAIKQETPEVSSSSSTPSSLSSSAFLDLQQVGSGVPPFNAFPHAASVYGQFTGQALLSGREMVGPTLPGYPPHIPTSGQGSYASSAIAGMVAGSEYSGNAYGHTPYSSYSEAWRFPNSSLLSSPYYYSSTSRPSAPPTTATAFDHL

[13] = LGR2 antagonists, dose response, cell-based, HEK293, CRE-luciferase reporter, cherry pick, set 2 (AID 743343); type: functional;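 further: transfected cells were stimulated with diluted bursicon conditioned medium after compound addition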
[14] = MC4R antagonists, dose response, counter-screen for LGR2 antagonist project, cell-based, plate reader, cherry pick (AID 743444); type: functional;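 further: transfected HEK 293 cells stimulated with alpha-MSH peptide; potency of inhibitors of the alpha-MSH evoked signal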
[15] = HepG2 cell cytotoxicity, dose response, cytotoxicity control, plate reader, cherry-pick, antagonist series (AID 743416); type: functional, cell-based
[16] = molecular target: T2, Microphthalmia-associated transcription factor (Homo sapiens, UniProt O75030); assay: TRPM1 promoter luciferase signal decrease, dose response, MITF inhibitor project, cell-based, SK-MEL-5, cherry-picked, set 3 (AID 493073); type: functional
T2 sequence (O75030 whole entry): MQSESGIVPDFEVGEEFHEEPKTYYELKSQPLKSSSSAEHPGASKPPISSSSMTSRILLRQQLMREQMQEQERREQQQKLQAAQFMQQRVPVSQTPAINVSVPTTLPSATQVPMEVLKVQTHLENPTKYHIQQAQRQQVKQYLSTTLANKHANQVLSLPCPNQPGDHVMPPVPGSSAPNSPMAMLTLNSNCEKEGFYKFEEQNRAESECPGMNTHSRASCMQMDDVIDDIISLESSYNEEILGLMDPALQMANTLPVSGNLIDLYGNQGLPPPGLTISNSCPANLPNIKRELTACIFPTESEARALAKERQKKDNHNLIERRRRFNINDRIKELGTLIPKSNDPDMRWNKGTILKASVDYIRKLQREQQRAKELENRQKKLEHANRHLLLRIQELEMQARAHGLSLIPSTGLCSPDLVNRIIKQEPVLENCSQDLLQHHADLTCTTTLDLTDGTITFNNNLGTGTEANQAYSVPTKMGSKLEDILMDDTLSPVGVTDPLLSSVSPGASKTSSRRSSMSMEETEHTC

[17] = inhibitors of SNCA 5'UTR-driven reporter translation, confirmation, H4 neuroglioma cells, luminescence (AID 1988); type: functional, cell-based
[18] = inhibitors of firefly luciferase expression or activity, dose response, H4 neuroglioma cells, luminescence (AID 1990); type: functional, cell-based
[19] = Luminescence Cell-Based Dose Response HTS to Identify Inhibitors of 5'UTR Stem-Loop Driven Prion Protein mRNA Translation in H4 Neuroglioblastoma Cells. [Related pubchem assays: 1827 (Project Summary), 1813 (Primary HTS)]; type: functional
[20] = molecular target: T3, Caspase-6 (Homo sapiens, UniProt P55212); assay: human caspase-6 inhibitors, dose response, biochemical, VEID-R110 fluorescence, cherry-pick (AID 720632)
T3 sequence (P55212 whole entry): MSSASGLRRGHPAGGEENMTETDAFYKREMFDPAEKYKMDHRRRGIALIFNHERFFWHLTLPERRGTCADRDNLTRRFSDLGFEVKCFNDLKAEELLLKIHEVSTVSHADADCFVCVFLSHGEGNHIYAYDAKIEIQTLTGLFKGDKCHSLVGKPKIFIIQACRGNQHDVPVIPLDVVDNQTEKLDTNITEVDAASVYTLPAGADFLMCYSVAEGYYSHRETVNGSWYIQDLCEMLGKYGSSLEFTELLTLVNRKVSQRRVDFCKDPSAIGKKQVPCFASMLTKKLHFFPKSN

[21] = tested on: BJ; assay: cells; type: functional, cell-based; conditions: Homo sapiens
[22] = tested on: BJ; assay: cytotoxicity toward BJ-TERT-LT-ST fibroblasts, dose response, cell-based, RAS-independent, luminescence (AID 1935); type: functional; conditions: Homo sapiens;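 further: BJ fibroblasts immortalized with TERT plus LT and ST oncogenes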
[23] = tested on: BJ; assay: cytotoxicity toward BJ-TERT fibroblasts, dose response, cell-based, RAS-independent, luminescence (AID 1933); type: functional; conditions: Homo sapiens
[24] = cytotoxicity toward DRD oncogenic fibroblasts, dose response, cell-based, non-viral oncogenic, luminescence (AID 1934); type: functional; conditions: Homo sapiens
[25] = microbe, parasite or virus in culture; type: functional; conditions: Mycobacterium tuberculosis
[26] = ZM109 Env clade C HIV-1 fusion inhibitors, dose response, HeLa effector, CEM target cells, luciferase, cherry-pick (AID 652058); type: functional, cell-based
[27] = inhibitors of clade B AD8 Env fusion, dose response, cell-based, cherry-pick (AID 652062); type: functional;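 further: luciferase signal from cell-cell fusion driven by HIV-1 clade B AD8 Env; potency is for inhibitors of fusion seen as a drop in luminescence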

Sequence of Cytochrome P450 2C19 (P33261 whole entry): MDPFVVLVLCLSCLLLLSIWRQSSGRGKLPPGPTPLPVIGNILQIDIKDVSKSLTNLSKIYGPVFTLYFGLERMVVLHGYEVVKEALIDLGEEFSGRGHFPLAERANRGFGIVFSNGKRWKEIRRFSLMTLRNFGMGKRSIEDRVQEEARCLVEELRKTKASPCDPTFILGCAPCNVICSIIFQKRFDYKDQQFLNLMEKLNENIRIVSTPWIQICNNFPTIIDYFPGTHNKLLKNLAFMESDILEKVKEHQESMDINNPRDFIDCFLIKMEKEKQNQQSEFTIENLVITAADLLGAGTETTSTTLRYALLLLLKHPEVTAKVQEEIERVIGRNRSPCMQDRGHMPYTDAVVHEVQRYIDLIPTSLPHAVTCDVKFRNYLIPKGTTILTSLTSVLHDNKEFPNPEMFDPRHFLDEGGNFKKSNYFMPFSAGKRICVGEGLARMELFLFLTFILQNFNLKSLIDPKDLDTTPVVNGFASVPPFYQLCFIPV

## COc1ccc(Cl)cc1NC(=O)CN1C(=O)CSC1=O
[1]
  AC50: 39.8 µM (inconclusive)
[2]
  AC50: 5.62 µM (inconclusive)
[3]
  AC50: inconclusive

## CCc1cc(-c2n[nH]cc2-c2ccc(OC)cc2)c(O)cc1O
[4]
  IC50: 6.31 µM (active)

## O=C(NC1CCCCC1)c1ccc([N+](=O)[O-])o1
[5]
  CC50: 18.4 µM (active)
[6]
  IC50: > 25 µM (active)

## C=CCNC(=S)N/N=C/c1ccc(-c2cc(Cl)ccc2Cl)o1
[1]
  AC50: 3.16 µM (inconclusive)
[7]
  AC50: 10 µM (inconclusive)
[3]
  AC50: inconclusive

## COc1ccc(NS(=O)(=O)c2ccc(NC(=O)C(CCSC)NC(N)=O)cc2)cc1 (configuration not stated)
[8]
  AC50: 26.9 µM (active)
[9]
  AC50: > 70 µM (inactive)

## Cn1nnnc1Sc1ncnc2scc(-c3ccc4c(c3)OCO4)c12
[10]
  AC50: 14.4 µM (active)
[11]
  AC50: 28.8 µM (active)
[12]
  AC50: 747 nM (active)
[5]
  CC50: 24 µM (active)
[13]
  AC50: 0.695 µM (active)
[14]
  AC50: 1.34 µM (active)

## OC(c1ccccc1)(c1ccccc1)C1CCN(CCCOc2ccc(C(F)(F)F)cc2)CC1
[10]
  AC50: 9.23 µM (active)
[11]
  AC50: 16.6 µM (active)
[15]
  AC50: 10.7 µM (active)
[13]
  AC50: 18.8 µM (active)
[14]
  AC50: 11.6 µM (active)

## COc1ccc(C(=O)Nc2ccc(C)cn2)c(OC)c1
[16]
  AC50: 3.7 µM (active)
[17]
  EC50: 307 nM (active)
[18]
  EC50: 1.15 µM (active)
[19]
  EC50: 28.2 µM (active)

## COc1ccc(CCC(=O)Nc2ccc(S(=O)(=O)Nc3nccc(C)n3)cc2)cc1
[20]
  AC50: 47.1 µM (active)

## CC1(C)CCSC(/C=C/c2ccccc2)=N1
[21]
  EC50: 143 µM (active)
[22]
  EC50: 12.4 µM (active)
[5]
  CC50: 18.5 µM (active)
[6]
  IC50: 19.2 µM (active)
[23]
  EC50: 7.83 µM (active)
[24]
  EC50: 8.6 µM (active)

## COc1ccc(NC(=O)c2ccc(Cl)c(S(=O)(=O)N3CCc4ccccc4C3)c2)cn1
[25]
  CC50: > 40 µM (active)
[26]
  AC50: 1.95 µM (active)
[27]
  AC50: 19.4 µM (active)

## O=C1C2CCCN2C(c2ccc(F)cc2)N1c1ccc(Cl)cc1 (configuration not stated)
[6]
  IC50: > 25 µM (active)
